Literature values, collected in patent publication US20100047195A1, “LIP BALM AND METHOD OF TREATING LIP CONDITIONS” (priority 2007, published 2010).

Conditions: oral isotretinoin; estimated

CC1=C(/C=C/C(C)=C/C=C/C(C)=C\C(=O)O)C(C)(C)CCC1 [isotretinoin, 13-cis-retinoic acid]
patients treated who develop cheilitis (cracking, soreness and other inflammation of the lips): over 90%
